{"source": "PubChem BioAssay AID1963426", "about": "(Molecular Pharmacology Branch, DTP, NCI, 2024);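 further: spheroids exposed to agents for 7 days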;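 on viability, T/C: 100% = DMSO vehicle control wells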", "test_system": "186277-243-T-J2-PDC complex spheroid growth, % test/control", "test": "Anticancer human tumor 186277-243-T-J2-PDC patient-derived colon adenocarcinoma cell line growth inhibition [Asc]", "settings": "for IC50: curve of first compound; for viability, T/C: stronger effect = lower value", "procedure,_shortened": "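Complex spheroids combining tumor cells with HUVEC endothelial cells and human MSCs, at 37 degrees C, 5% CO2; agents tested alone or combined, half-log dilutions from at or near clinical Cmax, or 10 microM if Cmax unknown.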"}
{"smiles": "Cn1ncnc1[C@H]1c2n[nH]c(=O)c3cc(F)cc(c23)N[C@@H]1c1ccc(F)cc1", "note": "+ CCN1C(C(=O)NC23CCC(C(=O)O)(CC2)CC3)C(c2cccc(Cl)c2F)C2(C(=O)Nc3cc(Cl)ccc32)C12CCCCC2", "values": [{"measurement": "IC50", "setting": "second compound 0.03 µM", "result": "> 100", "unit": "nM"}, {"measurement": "IC50", "setting": "second compound 0.0949 µM", "result": "> 100", "unit": "nM"}, {"measurement": "IC50", "setting": "second compound 0.3 µM", "result": "> 100", "unit": "nM"}, {"measurement": "IC50", "setting": "second compound 0.949 µM", "result": 2.14, "unit": "nM"}, {"measurement": "IC50", "setting": "second compound 3 µM", "result": "< 0.316", "unit": "nM"}, {"measurement": "viability, T/C", "setting": "second compound 0.03 µM, first compound 0.000316 µM", "result": 130, "unit": "%"}, {"measurement": "viability, T/C", "setting": "second compound 0.03 µM, first compound 0.001 µM", "result": 116, "unit": "%"}, {"measurement": "viability, T/C", "setting": "second compound 0.03 µM, first compound 0.00316 µM", "result": 107, "unit": "%"}, {"measurement": "viability, T/C", "setting": "second compound 0.03 µM, first compound 0.01 µM", "result": 91.3, "unit": "%"}, {"measurement": "viability, T/C", "setting": "second compound 0.03 µM, first compound 0.0316 µM", "result": 80.9, "unit": "%"}, {"measurement": "viability, T/C", "setting": "second compound 0.03 µM, first compound 0.1 µM", "result": 87.2, "unit": "%"}, {"measurement": "viability, T/C", "setting": "second compound 0.0949 µM, first compound 0.000316 µM", "result": 98.3, "unit": "%"}, {"measurement": "viability, T/C", "setting": "second compound 0.0949 µM, first compound 0.001 µM", "result": 82.1, "unit": "%"}, {"measurement": "viability, T/C", "setting": "second compound 0.0949 µM, first compound 0.00316 µM", "result": 87.6, "unit": "%"}, {"measurement": "viability, T/C", "setting": "second compound 0.0949 µM, first compound 0.01 µM", "result": 77.5, "unit": "%"}, {"measurement": "viability, T/C", "setting": "second compound 0.0949 µM, first compound 0.0316 µM", "result": 76.5, "unit": "%"}, {"measurement": "viability, T/C", "setting": "second compound 0.0949 µM, first compound 0.1 µM", "result": 65.8, "unit": "%"}, {"measurement": "viability, T/C", "setting": "second compound 0.3 µM, first compound 0.000316 µM", "result": 75, "unit": "%"}, {"measurement": "viability, T/C", "setting": "second compound 0.3 µM, first compound 0.001 µM", "result": 69, "unit": "%"}, {"measurement": "viability, T/C", "setting": "second compound 0.3 µM, first compound 0.00316 µM", "result": 65.9, "unit": "%"}, {"measurement": "viability, T/C", "setting": "second compound 0.3 µM, first compound 0.01 µM", "result": 63.6, "unit": "%"}, {"measurement": "viability, T/C", "setting": "second compound 0.3 µM, first compound 0.0316 µM", "result": 63.1, "unit": "%"}, {"measurement": "viability, T/C", "setting": "second compound 0.3 µM, first compound 0.1 µM", "result": 59.3, "unit": "%"}, {"measurement": "viability, T/C", "setting": "second compound 0.949 µM, first compound 0.000316 µM", "result": 52.4, "unit": "%"}, {"measurement": "viability, T/C", "setting": "second compound 0.949 µM, first compound 0.001 µM", "result": 56.5, "unit": "%"}, {"measurement": "viability, T/C", "setting": "second compound 0.949 µM, first compound 0.00316 µM", "result": 49.4, "unit": "%"}, {"measurement": "viability, T/C", "setting": "second compound 0.949 µM, first compound 0.01 µM", "result": 43, "unit": "%"}, {"measurement": "viability, T/C", "setting": "second compound 0.949 µM, first compound 0.0316 µM", "result": 42, "unit": "%"}, {"measurement": "viability, T/C", "setting": "second compound 0.949 µM, first compound 0.1 µM", "result": 41.4, "unit": "%"}, {"measurement": "viability, T/C", "setting": "second compound 3 µM, first compound 0.000316 µM", "result": 30.1, "unit": "%"}, {"measurement": "viability, T/C", "setting": "second compound 3 µM, first compound 0.001 µM", "result": 32.3, "unit": "%"}, {"measurement": "viability, T/C", "setting": "second compound 3 µM, first compound 0.00316 µM", "result": 31.9, "unit": "%"}, {"measurement": "viability, T/C", "setting": "second compound 3 µM, first compound 0.01 µM", "result": 26, "unit": "%"}, {"measurement": "viability, T/C", "setting": "second compound 3 µM, first compound 0.0316 µM", "result": 22.9, "unit": "%"}, {"measurement": "viability, T/C", "setting": "second compound 3 µM, first compound 0.1 µM", "result": 25.8, "unit": "%"}]}
